Test results reported in EP0007672A1, “Isocyanoalkenes, process and useful intermediates for their preparation, pharmaceutical and fungicidal preparations containing those isocyanoalkenes and the use of the fungicidal preparations in agriculture” (GIST-BROCADES N.V., priority 1978, dated 1980).
Values after ≈ are worked out from the molar mass of the structure shown. Where two headings read alike, the source gives them in different places.

Legend:
Assay in all cases: MIC (Minimum Inhibitory Concentration)
Format in all cases: cell-based
Candida albicans = system: Candida albicans
Text: (§1) In addition they may be used for combatting plant diseases, in particular as fungicides. A list of MIC (Minimum Inhibitory Concentration) values for a number of microorganisms is listed herebelow. The figures in the column headings refer to the compounds prepared according to the experimental examples in comparison with the spectrum of 1-[2-(2,4-dichlorophenyl)-2-{(2,4-dichlorophenyl)-methoxy} -ethyl7-1H-imidazole (better known under the name of miconazole, c.f. Merck Index 9th Ed. page 6047) or natamycin (pimaricin, c.f. Merck Index 9th Ed. page 7233).

Trichophyton equinum = system: Trichophyton equinum
Text: as §1

[1] = system: Trichophyton mentagrophytus
Text: as §1

Trichophyton quickeaneum = conditions: read-out: MIC values
Text: as §1

Trichophyton rubrum = system: Trichophyton rubrum
Text: as §1

[2] = system: Trichophyton schoenleinii; conditions: read-out: MIC values
Text: as §1

[3] = system: Trichophyton soudanese joyeux; conditions: Trichophyton soudanese joyeux 440-63; read-out: MIC values
Text: as §1

Trichophyton tonsurans = conditions: read-out: MIC values
Text: as §1

Trichophyton violoceum = conditions: read-out: MIC values
Text: as §1

Pasteurella multocida = conditions: Pasteurella multocida, read-out: MIC values
Text: as §1

[4] = system: Streptococcus haemolyticus; conditions: Streptococcus, read-out: MIC values
Text: as §1

Trichophyton verrucosum = system: Trichophyton verrucosum
Text: as §1

## [C-]#[N+]C(=C(C)C)S(=O)(=O)c1ccc(C)cc1 [Example 5, 1-isocyano-2-methyl-1-(4-toluenesulphonyl)-1-propene]
Candida albicans; Candida albicans A 7, read-out: MIC values
  MIC: 3 µg/mL (≈ 12.7 µM)
Candida albicans; Candida albicans A 3140, read-out: MIC values
  MIC: 12.5 µg/mL (≈ 53.1 µM)
Candida albicans; Candida albicans A 3141, read-out: MIC values
  MIC: 25 µg/mL (≈ 106 µM)
Candida albicans; Candida albicans A 3142, read-out: MIC values
  MIC: 25 µg/mL (≈ 106 µM)
Candida albicans; Candida albicans A 3143, read-out: MIC values
  MIC: 25 µg/mL (≈ 106 µM)
Candida albicans; Candida albicans A 3144, read-out: MIC values
  MIC: 25 µg/mL (≈ 106 µM)
Candida albicans; Candida albicans A 3145, read-out: MIC values
  MIC: 12.5 µg/mL (≈ 53.1 µM)
Candida albicans; Candida albicans A 3165, read-out: MIC values
  MIC: 12.5 µg/mL (≈ 53.1 µM)
Candida albicans; Candida albicans A 3166, read-out: MIC values
  MIC: 12.5 µg/mL (≈ 53.1 µM)
Candida albicans; Candida albicans A 3167, read-out: MIC values
  MIC: 25 µg/mL (≈ 106 µM)
Candida albicans; Candida albicans A 3168, read-out: MIC values
  MIC: 25 µg/mL (≈ 106 µM)
Candida albicans; Candida albicans A 3169, read-out: MIC values
  MIC: 25 µg/mL (≈ 106 µM)
Candida albicans; Candida albicans A 3171, read-out: MIC values
  MIC: 12.5 µg/mL (≈ 53.1 µM)
Candida albicans; Candida albicans A 3184, read-out: MIC values
  MIC: 12.5 µg/mL (≈ 53.1 µM)
Candida albicans; Candida albicans A 3190, read-out: MIC values
  MIC: 12.5 µg/mL (≈ 53.1 µM)
Candida albicans; Candida albicans A 3191, read-out: MIC values
  MIC: 25 µg/mL (≈ 106 µM)
Candida albicans; Candida albicans A 3192, read-out: MIC values
  MIC: 25 µg/mL (≈ 106 µM)
Candida albicans; Candida albicans A 3194, read-out: MIC values
  MIC: 25 µg/mL (≈ 106 µM)
Candida albicans; Candida albicans A 3196, read-out: MIC values
  MIC: 25 µg/mL (≈ 106 µM)
Trichophyton equinum; Trichophyton equinum 182-76, read-out: MIC values
  MIC: 3 µg/mL (≈ 12.7 µM)
Trichophyton equinum; Trichophyton equinum 856-71, read-out: MIC values
  MIC: 6 µg/mL (≈ 25.5 µM)
[1]; Trichophyton mentagrophytus 367-68, read-out: MIC values
  MIC: 1.5 µg/mL (≈ 6.37 µM)
[1]; Trichophyton mentagrophytus 421-67, read-out: MIC values
  MIC: 1.5 µg/mL (≈ 6.37 µM)
[1]; Trichophyton mentagrophytus A 3252, read-out: MIC values
  MIC: 0.8 µg/mL (≈ 3.4 µM)
[1]; Trichophyton mentagrophytus R 177, read-out: MIC values
  MIC: 6 µg/mL (≈ 25.5 µM)
[1]; Trichophyton mentagrophytus R 178, read-out: MIC values
  MIC: 50 µg/mL (≈ 212 µM)
[1]; Trichophyton mentagrophytus RRL 305, read-out: MIC values
  MIC: 3 µg/mL (≈ 12.7 µM)
Trichophyton quickeaneum; Trichophyton quickeaneum A 2040
  MIC: 0.8 µg/mL (≈ 3.4 µM)
Trichophyton rubrum; Trichophyton rubrum 218-65, read-out: MIC values
  MIC: 0.4 µg/mL (≈ 1.7 µM)
Trichophyton rubrum; Trichophyton rubrum 494-62, read-out: MIC values
  MIC: 0.4 µg/mL (≈ 1.7 µM)
[2]; Trichophyton schoenleinii 435-63
  MIC: 0.2 µg/mL (≈ 0.85 µM)
[3]
  MIC: 12.5 µg/mL (≈ 53.1 µM)
Trichophyton tonsurans; Trichophyton tonsurans 561-50
  MIC: < 0.1 µg/mL
Trichophyton violoceum; Trichophyton violoceum 442-62
  MIC: 0.1 µg/mL (≈ 0.425 µM)

## [C-]#[N+]C(C1=CCCCCCC1)S(=O)(=O)c1ccc(C)cc1 (stereo not drawn) [Example 20, α-(cycloocten-1-yl)-α-(4-toluenesulphonyl) methylisocyanide]
Candida albicans; read-out: MIC values, Candida albicans A 7
  MIC: 6 µg/mL (≈ 19.8 µM)
Candida albicans; read-out: MIC values, Candida albicans A 3140
  MIC: 6 µg/mL (≈ 19.8 µM)
Candida albicans; read-out: MIC values, Candida albicans A 3141
  MIC: 6 µg/mL (≈ 19.8 µM)
Candida albicans; read-out: MIC values, Candida albicans A 3142
  MIC: 6 µg/mL (≈ 19.8 µM)
Candida albicans; read-out: MIC values, Candida albicans A 3143
  MIC: 6 µg/mL (≈ 19.8 µM)
Candida albicans; read-out: MIC values, Candida albicans A 3144
  MIC: 6 µg/mL (≈ 19.8 µM)
Candida albicans; read-out: MIC values, Candida albicans A 3145
  MIC: 6 µg/mL (≈ 19.8 µM)
Candida albicans; read-out: MIC values, Candida albicans A 3165
  MIC: 6 µg/mL (≈ 19.8 µM)
Candida albicans; read-out: MIC values, Candida albicans A 3166
  MIC: 6 µg/mL (≈ 19.8 µM)
Candida albicans; read-out: MIC values, Candida albicans A 3167
  MIC: 6 µg/mL (≈ 19.8 µM)
Candida albicans; read-out: MIC values, Candida albicans A 3168
  MIC: 6 µg/mL (≈ 19.8 µM)
Candida albicans; read-out: MIC values, Candida albicans A 3169
  MIC: 6 µg/mL (≈ 19.8 µM)
Candida albicans; read-out: MIC values, Candida albicans A 3171
  MIC: 6 µg/mL (≈ 19.8 µM)
Candida albicans; read-out: MIC values, Candida albicans A 3184
  MIC: 6 µg/mL (≈ 19.8 µM)
Candida albicans; read-out: MIC values, Candida albicans A 3190
  MIC: 6 µg/mL (≈ 19.8 µM)
Candida albicans; read-out: MIC values, Candida albicans A 3191
  MIC: 6 µg/mL (≈ 19.8 µM)
Candida albicans; read-out: MIC values, Candida albicans A 3192
  MIC: 6 µg/mL (≈ 19.8 µM)
Candida albicans; read-out: MIC values, Candida albicans A 3194
  MIC: 3 µg/mL (≈ 9.89 µM)
Candida albicans; read-out: MIC values, Candida albicans A 3196
  MIC: 6 µg/mL (≈ 19.8 µM)
Pasteurella multocida
  MIC: 50 µg/mL (≈ 165 µM)
[4]
  MIC: 12.5 µg/mL (≈ 41.2 µM)
Trichophyton equinum; read-out: MIC values, Trichophyton equinum 182-76
  MIC: 50 µg/mL (≈ 165 µM)
Trichophyton equinum; read-out: MIC values, Trichophyton equinum 441-51
  MIC: 12.5 µg/mL (≈ 41.2 µM)
[1]; read-out: MIC values, Trichophyton mentagrophytus 367-68
  MIC: 50 µg/mL (≈ 165 µM)
[1]; read-out: MIC values, Trichophyton mentagrophytus 421-67
  MIC: 100 µg/mL (≈ 330 µM)
[1]; read-out: MIC values, Trichophyton mentagrophytus A 3252
  MIC: 25 µg/mL (≈ 82.4 µM)
[1]; read-out: MIC values, Trichophyton mentagrophytus R 177
  MIC: 50 µg/mL (≈ 165 µM)
[1]; read-out: MIC values, Trichophyton mentagrophytus R 178
  MIC: > 100 µg/mL
Trichophyton quickeaneum; Trichophyton
  MIC: 25 µg/mL (≈ 82.4 µM)
Trichophyton rubrum; read-out: MIC values, Trichophyton rubrum 218-65
  MIC: 12.5 µg/mL (≈ 41.2 µM)
Trichophyton rubrum; read-out: MIC values, Trichophyton rubrum 494-62
  MIC: 12.5 µg/mL (≈ 41.2 µM)
Trichophyton rubrum; read-out: MIC values, Trichophyton rubrum A 810
  MIC: 100 µg/mL (≈ 330 µM)
[2]; Trichophyton schoenleinii
  MIC: 12.5 µg/mL (≈ 41.2 µM)
Trichophyton tonsurans; Trichophyton tonsurans
  MIC: 0.75 µg/mL (≈ 2.47 µM)
Trichophyton verrucosum; read-out: MIC values, Trichophyton verrucosum 134-66
  MIC: 6 µg/mL (≈ 19.8 µM)
Trichophyton verrucosum; read-out: MIC values, Trichophyton verrucosum A 2922
  MIC: 6 µg/mL (≈ 19.8 µM)
Trichophyton violoceum; Trichophyton
  MIC: 12.5 µg/mL (≈ 41.2 µM)
